Experimental data published in PubChem BioAssay AID330 (DTP/NCI, 2004).
“And” between values parts separate entries of the source, which are not always exact repeats. Identical values can stand only once. Inconclusive results and toxic doses are left out.

System: P388 leukemia ip, CD2F1 mice, survival T/C
Test: NCI In Vivo Anticancer Drug Screen. Data for tumor model P388 Leukemia (intraperitoneal) in CD2F1 (CDF1) mice
Settings: endpoint: median survival time, higher = longer survival
In short: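 Mice carrying the transplanted tumor received test compound or vehicle. Survival was recorded in each group, and the value is the treated-group measurement divided by that of the vehicle-treated control group.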

[1] = dose: 50.0 mg/kg/injection, schedule: Q01DX009 (ip), vehicle: saline
[2] = dose: 100.0 mg/kg/injection, schedule: Q01DX009 (ip), vehicle: saline
[3] = dose: 200.0 mg/kg/injection, schedule: Q01DX009 (ip), vehicle: saline
[4] = dose: 400.0 mg/kg/injection, schedule: Q01DX009 (ip), vehicle: saline
[5] = dose: 50.0 mg/kg/injection, schedule: Q01DX009 (ip), vehicle: Klucel (hydroxypropylcellulose) (HPC)
[6] = dose: 60.0 mg/kg/injection, schedule: Q01DX005 (ip), vehicle: saline with Tween-80
[7] = dose: 100.0 mg/kg/injection, schedule: Q01DX009 (ip), vehicle: Klucel (hydroxypropylcellulose) (HPC)
[8] = dose: 120.0 mg/kg/injection, schedule: Q01DX005 (ip), vehicle: saline with Tween-80
[9] = dose: 200.0 mg/kg/injection, schedule: Q01DX009 (ip), vehicle: Klucel (hydroxypropylcellulose) (HPC)
[10] = dose: 50.0 mg/kg/injection, schedule: Q01DX005 (ip), vehicle: saline with Tween-80
[11] = dose: 100.0 mg/kg/injection, schedule: Q01DX005 (ip), vehicle: saline with Tween-80
[12] = dose: 200.0 mg/kg/injection, schedule: Q01DX005 (ip), vehicle: saline with Tween-80
[13] = dose: 240.0 mg/kg/injection, schedule: Q01DX005 (ip), vehicle: saline with Tween-80
[14] = dose: 12.5 mg/kg/injection, schedule: Q01DX009 (ip), vehicle: saline
[15] = dose: 25.0 mg/kg/injection, schedule: Q01DX009 (ip), vehicle: saline
[16] = dose: 50.0 mg/kg/injection, schedule: Q01DX005 (ip), vehicle: Klucel (hydroxypropylcellulose) (HPC)
[17] = dose: 100.0 mg/kg/injection, schedule: Q01DX005 (ip), vehicle: Klucel (hydroxypropylcellulose) (HPC)
[18] = dose: 200.0 mg/kg/injection, schedule: Q01DX005 (ip), vehicle: Klucel (hydroxypropylcellulose) (HPC)
[19] = dose: 100.0 mg/kg/injection, schedule: Q04DX003 (ip), vehicle: saline with Tween-80
[20] = dose: 200.0 mg/kg/injection, schedule: Q04DX003 (ip), vehicle: saline with Tween-80
[21] = dose: 50.0 mg/kg/injection, schedule: Q01DX009 (ip), vehicle: saline with Tween-80

## OCCc1ccccn1
[1]
  T/C: 102 % of control
[2]
  T/C: 111 % of control
[3]
  T/C: 102 % of control
[4]
  T/C: 102 % of control

## CC(=O)NCC(C)c1ccccc1 (configuration not stated)
dose: 25.0 mg/kg/injection, schedule: Q01DX009 (ip), vehicle: saline with Tween-80
  T/C: 102 % of control

## COC1=CC(=O)C2CC=CC3CC(=O)OC1C32C (configuration not stated)
dose: 100.0 mg/kg/injection, schedule: Q04DX002 (ip), vehicle: Klucel (hydroxypropylcellulose) (HPC)
  T/C: 100 % of control
dose: 200.0 mg/kg/injection, schedule: Q04DX002 (ip), vehicle: Klucel (hydroxypropylcellulose) (HPC)
  T/C: 94 % of control
dose: 400.0 mg/kg/injection, schedule: Q04DX002 (ip), vehicle: Klucel (hydroxypropylcellulose) (HPC)
  T/C: 100 % of control

## CC(=O)C1C(=O)C(=O)N(c2ccccc2C)C1=O (configuration not stated)
[5]
  T/C: 105 % of control
[6]
  T/C: 103 % of control
[7]
  T/C: 107 % of control
[8]
  T/C: 100 % of control
[9]
  T/C: 110 % of control

## CCOC(OCC)C(N)=O
[10]
  T/C: 105 % of control
[11]
  T/C: 109 % of control
[12]
  T/C: 100 % of control

## CS/C(=N\S(=O)(=O)c1ccccc1)NNC(=O)c1c(-c2c(Cl)cccc2Cl)noc1C
[6]
  T/C: 100 % of control
[8]
  T/C: 100 % of control
[13]
  T/C: 91 % of control

## Cc1ccc(C(=O)CSC2=NCCN2)cc1Cl
[6]
  T/C: 106 % of control
[8]
  T/C: 100 % of control
[13]
  T/C: 97 % of control

## O=NN(CCCl)C(=O)Nc1c[nH]c(=O)[nH]c1=O
dose: 0.01 mg/kg/injection, schedule: Q04DX003 (ip), vehicle: saline with Tween-80
  T/C: 95 % of control
dose: 0.02 mg/kg/injection, schedule: Q04DX003 (ip), vehicle: saline with Tween-80
  T/C: 100 % of control
dose: 0.04 mg/kg/injection, schedule: Q04DX003 (ip), vehicle: saline with Tween-80
  T/C: 100 % of control
dose: 0.5 mg/kg/injection, schedule: Q04DX003 (ip), vehicle: saline
  T/C: 150 % of control
dose: 1.0 mg/kg/injection, schedule: Q04DX003 (ip), vehicle: saline
  T/C: 159 % of control
dose: 2.0 mg/kg/injection, schedule: Q04DX003 (ip), vehicle: saline
  T/C: 172 % of control
dose: 3.0 mg/kg/injection, schedule: Q04DX003 (ip), vehicle: saline with Tween-80
  T/C: 195 % of control
dose: 3.13 mg/kg/injection, schedule: Q01DX009 (ip), vehicle: saline with Tween-80
  T/C: 227 % of control
dose: 6.0 mg/kg/injection, schedule: Q04DX003 (ip), vehicle: saline with Tween-80
  T/C: 213 % of control
dose: 6.25 mg/kg/injection, schedule: Q01DX009 (ip), vehicle: saline with Tween-80
  T/C: 227 % of control
dose: 8.0 mg/kg/injection, schedule: Q04DX003 (ip), vehicle: saline with Tween-80
  T/C: 191 % of control
dose: 12.0 mg/kg/injection, schedule: Q04DX003 (ip), vehicle: saline with Tween-80
  T/C: 166 % of control
dose: 12.5 mg/kg/injection, schedule: Q01DX009 (ip), vehicle: saline with Tween-80
  T/C: 109 % of control
dose: 12.5 mg/kg/injection, schedule: Q04DX003 (ip), vehicle: saline with Tween-80
  T/C: 219 % of control
dose: 18.0 mg/kg/injection, schedule: Q04DX003 (ip), vehicle: saline with Tween-80
  T/C: 191 % of control
dose: 30.0 mg/kg/injection, schedule: Q01DX009 (ip), vehicle: saline with Tween-80
  T/C: 100 % of control

## CCCCCC(CN(C)C)C(O)/C=C/c1ccc(Cl)cc1Cl (configuration not stated)
[14]
  T/C: 108 % of control
[15]
  T/C: 100 % of control
[1]
  T/C: 99 % of control

## C(=C\c1cccs1)/c1csnn1
[6]
  T/C: 101 % of control
[8]
  T/C: 102 % of control
[13]
  T/C: 101 % of control

## O=C1CCCN1C(=O)C1CC1
dose: 50.0 mg/kg/injection, schedule: Q01DX001 (ip), vehicle: saline
  T/C: 100 % of control
dose: 100.0 mg/kg/injection, schedule: Q01DX001 (ip), vehicle: saline
  T/C: 109 % of control
dose: 200.0 mg/kg/injection, schedule: Q01DX001 (ip), vehicle: saline
  T/C: 100 % of control

## CCCCOc1ccc(-n2c(=O)[nH]c3ccccc3c2=O)cc1
[16]
  T/C: 96 % of control
[17]
  T/C: 100 % of control
[18]
  T/C: 96 % of control

## NC(=S)N/N=C/c1cc(Cl)ccc1O
[19]
  T/C: 99 % of control
[20]
  T/C: 98 % of control
dose: 400.0 mg/kg/injection, schedule: Q04DX003 (ip), vehicle: saline with Tween-80
  T/C: 93 % of control

## CC(=O)SCC1C(=O)CC(C)(C)CC1=O
dose: 200.0 mg/kg/injection, schedule: Q04DX003 (ip), vehicle: Klucel (hydroxypropylcellulose) (HPC)
  T/C: 89 % of control

## Cc1cc(NC(=O)C(=O)CC(=O)c2ccc(Cl)s2)no1
dose: 100.0 mg/kg/injection, schedule: Q04DX002 (ip), vehicle: saline with Tween-80
  T/C: 99 % of control
dose: 200.0 mg/kg/injection, schedule: Q04DX002 (ip), vehicle: saline with Tween-80
  T/C: 104 % of control
dose: 400.0 mg/kg/injection, schedule: Q04DX002 (ip), vehicle: saline with Tween-80
  T/C: 107 % of control

## C#CC(CC)OC(=O)c1ccc([N+](=O)[O-])cc1 (configuration not stated)
[5]
  T/C: 103 % of control
[7]
  T/C: 103 % of control
[9]
  T/C: 91 % of control

## O=C(O)CNC(=O)C(CN1CC(=O)OC1c1ccc([N+](=O)[O-])cc1)N1C(=O)c2ccccc2C1=O (configuration not stated)
dose: 25.0 mg/kg/injection, schedule: Q04DX003 (ip), vehicle: saline with Tween-80
  T/C: 100 % of control
dose: 50.0 mg/kg/injection, schedule: Q04DX003 (ip), vehicle: saline with Tween-80
  T/C: 100 % of control

## CN1C2CCC1CC(OC(=O)CBr)C2 (configuration not stated)
[14]
  T/C: 115 % of control
[15]
  T/C: 107 % of control
[1]
  T/C: 117 % of control and 120 % of control

## Cn1c(=S)sc2nc3ccccc3n2c1=S
dose: 30.0 mg/kg/injection, schedule: Q01DX005 (ip), vehicle: saline with Tween-80
  T/C: 117 % of control
[6]
  T/C: 121 % of control
[8]
  T/C: 108 % of control

## COc1c2c(c3c(c1CCC(=O)O)OC(C)(C)C=C3)OC(C)(C)C=C2
[16]
  T/C: 102 % of control
[17]
  T/C: 100 % of control
[18]
  T/C: 102 % of control

## C/C(=N\O)C1CCN(Cc2ccccc2)CC1
dose: 12.5 mg/kg/injection, schedule: Q01DX005 (ip), vehicle: Klucel (hydroxypropylcellulose) (HPC)
  T/C: 105 % of control
dose: 25.0 mg/kg/injection, schedule: Q01DX005 (ip), vehicle: Klucel (hydroxypropylcellulose) (HPC)
  T/C: 110 % of control
[16]
  T/C: 100 % of control and 105 % of control

## O=C(O)c1c(Cl)c(Cl)c(Cl)c(Cl)c1C(=O)OCC1CCCO1 (configuration not stated)
[21]
  T/C: 90 % of control
dose: 100.0 mg/kg/injection, schedule: Q01DX009 (ip), vehicle: saline with Tween-80
  T/C: 106 % of control
dose: 200.0 mg/kg/injection, schedule: Q01DX009 (ip), vehicle: saline with Tween-80
  T/C: 101 % of control

## O=C(Nc1ccccc1[N+](=O)[O-])C1C(=O)C(=O)N(c2ccccc2[N+](=O)[O-])C1=O (configuration not stated)
[5]
  T/C: 99 % of control
[7]
  T/C: 108 % of control
[9]
  T/C: 99 % of control

## Nc1ccc[nH]c1=O
[14]
  T/C: 100 % of control and 113 % of control
[15]
  T/C: 103 % of control
[1]
  T/C: 98 % of control and 103 % of control
[2]
  T/C: 103 % of control and 113 % of control
[4]
  T/C: 100 % of control

## Cn1ncc2c(N)ncnc21
[21]
  T/C: 118 % of control
[19]
  T/C: 109 % of control
[20]
  T/C: 123 % of control

## O=C(O)C(=O)O.[NH-]CC[NH-].[Pt+2]
dose: 3.12 mg/kg/injection, schedule: Q04DX002 (ip), vehicle: saline with Tween-80
  T/C: 117 % of control

## COc1ccc(C2C(S(=O)(=O)c3ccccc3)CON2c2ccccc2)cc1 (configuration not stated)
[10]
  T/C: 97 % of control
[11]
  T/C: 96 % of control
[12]
  T/C: 89 % of control

## CCNCC(O)c1cccc(C(F)(F)F)c1 (configuration not stated)
[1]
  T/C: 102 % of control
[2]
  T/C: 109 % of control

## CNC1=CC(=O)c2c(c3cc(OC(C)=O)ccc3n2C)C1=O
[1]
  T/C: 99 % of control
[2]
  T/C: 99 % of control
[3]
  T/C: 100 % of control
